Assay results reported in ChEMBL document CHEMBL1131670, “N-hydroxyurea and hydroxamic acid inhibitors of cyclooxygenase and 5-lipoxygenase” (Bioorg Med Chem Lett, 1999).

How the values were obtained:
[1] = target: T1, Prostaglandin G/H synthase 1 (Ovis aries) (UniProt P05979); assay: Inhibitory activity against Cyclooxygenase using sheep seminal vesicle (SSV) enzyme (COX-1) at 10 uM; format: tissue-based
T1 sequence (whole entry): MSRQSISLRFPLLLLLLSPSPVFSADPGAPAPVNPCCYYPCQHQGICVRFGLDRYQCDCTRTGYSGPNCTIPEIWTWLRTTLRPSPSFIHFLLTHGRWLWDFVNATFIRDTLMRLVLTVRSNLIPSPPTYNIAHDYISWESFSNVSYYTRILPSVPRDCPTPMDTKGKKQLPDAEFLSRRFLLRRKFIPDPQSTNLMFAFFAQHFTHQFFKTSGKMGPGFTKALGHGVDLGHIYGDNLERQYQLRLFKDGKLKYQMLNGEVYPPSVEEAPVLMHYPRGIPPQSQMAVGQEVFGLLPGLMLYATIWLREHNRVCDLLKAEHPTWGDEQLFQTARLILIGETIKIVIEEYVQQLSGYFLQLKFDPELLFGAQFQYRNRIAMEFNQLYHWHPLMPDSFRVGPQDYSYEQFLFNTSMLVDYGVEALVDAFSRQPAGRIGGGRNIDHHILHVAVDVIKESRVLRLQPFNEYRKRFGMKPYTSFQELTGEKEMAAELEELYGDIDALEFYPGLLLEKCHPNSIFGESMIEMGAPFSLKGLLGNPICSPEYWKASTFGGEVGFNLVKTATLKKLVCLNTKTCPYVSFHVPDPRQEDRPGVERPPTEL

Cyclooxygenase [2] = target: T2, Cyclooxygenase (Rattus norvegicus, UniProt P35355+Q63921); assay: Inhibitory activity against cyclooxygenase (COX) in intact rat […] leukemia cells (RBL-1); format: cell-based
T2 sequence (P35355 whole entry): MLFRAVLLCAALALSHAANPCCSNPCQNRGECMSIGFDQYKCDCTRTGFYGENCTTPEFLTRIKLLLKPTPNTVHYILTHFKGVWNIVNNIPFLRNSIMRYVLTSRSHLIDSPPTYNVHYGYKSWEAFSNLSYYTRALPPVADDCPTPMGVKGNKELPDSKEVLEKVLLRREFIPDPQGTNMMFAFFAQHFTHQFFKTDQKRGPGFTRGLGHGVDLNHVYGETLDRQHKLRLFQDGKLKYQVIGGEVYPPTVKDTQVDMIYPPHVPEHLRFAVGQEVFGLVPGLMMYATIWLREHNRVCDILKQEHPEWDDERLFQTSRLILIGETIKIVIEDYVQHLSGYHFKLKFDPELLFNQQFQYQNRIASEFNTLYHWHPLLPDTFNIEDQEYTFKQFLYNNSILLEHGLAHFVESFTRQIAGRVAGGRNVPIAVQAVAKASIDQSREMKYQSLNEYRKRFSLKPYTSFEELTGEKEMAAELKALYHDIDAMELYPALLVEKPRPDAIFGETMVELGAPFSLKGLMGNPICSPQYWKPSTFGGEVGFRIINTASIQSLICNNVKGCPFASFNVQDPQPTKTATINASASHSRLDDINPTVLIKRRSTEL
T2 sequence (Q63921 whole entry): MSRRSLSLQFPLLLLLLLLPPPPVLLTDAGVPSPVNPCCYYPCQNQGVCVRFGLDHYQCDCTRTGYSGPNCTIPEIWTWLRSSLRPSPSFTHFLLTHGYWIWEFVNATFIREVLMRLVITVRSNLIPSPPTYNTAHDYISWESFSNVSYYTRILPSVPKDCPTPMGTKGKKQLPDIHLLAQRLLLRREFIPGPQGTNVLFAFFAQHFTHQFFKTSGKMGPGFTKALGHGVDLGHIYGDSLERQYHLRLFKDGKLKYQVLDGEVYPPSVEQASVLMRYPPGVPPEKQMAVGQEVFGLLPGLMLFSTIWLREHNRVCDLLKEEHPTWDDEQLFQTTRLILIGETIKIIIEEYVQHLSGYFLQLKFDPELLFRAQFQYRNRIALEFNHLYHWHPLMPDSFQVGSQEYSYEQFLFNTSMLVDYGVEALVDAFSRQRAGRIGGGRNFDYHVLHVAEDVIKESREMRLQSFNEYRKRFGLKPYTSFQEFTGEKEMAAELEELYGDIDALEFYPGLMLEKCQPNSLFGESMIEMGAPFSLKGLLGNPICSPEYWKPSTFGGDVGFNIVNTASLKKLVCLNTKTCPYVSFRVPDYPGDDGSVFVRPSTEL

[3] = target: T3, Polyunsaturated fatty acid 5-lipoxygenase (Rattus norvegicus) (UniProt P12527); assay: Inhibitory activity against 5-lipoxygenase (5-LO) using broken rat […] leukemia cells (RBL-1)at 10 uM; format: cell-based
T3 sequence (whole entry): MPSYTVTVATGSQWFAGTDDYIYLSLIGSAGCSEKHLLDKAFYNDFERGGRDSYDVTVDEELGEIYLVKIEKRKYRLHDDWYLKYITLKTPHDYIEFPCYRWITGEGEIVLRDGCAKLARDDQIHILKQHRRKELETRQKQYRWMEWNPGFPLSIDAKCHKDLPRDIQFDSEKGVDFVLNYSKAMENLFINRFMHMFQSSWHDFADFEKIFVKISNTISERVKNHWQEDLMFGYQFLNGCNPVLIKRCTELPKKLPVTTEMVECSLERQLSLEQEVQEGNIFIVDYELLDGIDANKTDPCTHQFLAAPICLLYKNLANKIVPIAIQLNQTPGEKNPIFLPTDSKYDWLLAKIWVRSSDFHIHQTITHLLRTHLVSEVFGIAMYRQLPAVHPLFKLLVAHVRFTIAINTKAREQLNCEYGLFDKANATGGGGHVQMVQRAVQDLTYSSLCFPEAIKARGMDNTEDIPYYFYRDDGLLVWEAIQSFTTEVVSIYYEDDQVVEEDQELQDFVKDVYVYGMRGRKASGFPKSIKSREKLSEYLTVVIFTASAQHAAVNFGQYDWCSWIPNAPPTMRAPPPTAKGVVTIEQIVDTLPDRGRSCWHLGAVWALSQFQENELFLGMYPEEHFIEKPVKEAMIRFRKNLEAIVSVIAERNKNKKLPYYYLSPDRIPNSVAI

[4] = target: T1, Prostaglandin G/H synthase 1 (Ovis aries); assay: Inhibitory activity against Cyclooxygenase using sheep seminal vesicle (SSV) enzyme (COX-1)at 10 uM; format: tissue-based
Cyclooxygenase [5] = target: T2, Cyclooxygenase; assay: Inhibitory activity against Cyclooxygenase (COX) using broken rat […] leukemia cells (RBL-1); format: cell-based
[6] = target: T3, Polyunsaturated fatty acid 5-lipoxygenase (Rattus norvegicus); assay: Inhibitory activity against 5-lipoxygenase (5-LO) using broken rat […] leukemia cells (RBL-1) at 10 uM; format: cell-based
[7] = target: Cyclooxygenase (Rattus norvegicus) (UniProt P35355+Q63921); assay: Inhibitory activity against Cyclooxygenase (COX) using broken rat […] leukemia cells (RBL-1) at 10 uM; format: cell-based

Structure (SMILES)	inhibition [1]	IC50 (Cyclooxygenase [2])	inhibition [3]	inhibition [4]	IC50 (Cyclooxygenase [5])	inhibition [6]	inhibition [7]
COC(=O)N(O)CC#Cc1cc(-c2ccc(C)cc2)n(-c2ccc(OC)cc2)n1	74%	0.28 µM	100%	–	–	–	–
COc1ccc(-n2nc(C#CC(C)N(O)C(N)=O)cc2-c2ccc(C)cc2)cc1 (stereo unspecified)	–	1.4 µM	–	10%	9.4 µM	–	–
CCC(C#Cc1cc(-c2ccc(C)cc2)n(-c2ccc(OC)cc2)n1)N(O)C(C)=O (stereo unspecified)	–	0.22 µM	–	–	0.01 µM	–	–
COc1ccc(-n2nc(C#CCN(O)C(=O)c3ccccc3)cc2-c2ccc(C)cc2)cc1	52%	–	100%	–	–	–	–
COc1ccc(-n2nc(C#CC(C(C)C)N(O)C(N)=O)cc2-c2ccc(Cl)cc2)cc1 (stereo unspecified)	38%	14.5 µM	90%	–	–	–	–
COc1ccc(-n2nc(C#CC(C)N(O)C(=O)c3cccnc3)cc2-c2ccc(C)cc2)cc1 (stereo unspecified)	–	11.5 µM	–	–	–	88%	54%
CCOC(=O)CCC(=O)N(O)C(C)C#Cc1cc(-c2ccc(CC)cc2)n(-c2ccc(OC)cc2)n1 (stereo unspecified)	3%	14 µM	–	–	–	97%	52%
COc1ccc(-n2nc(C#CC(C)N(O)C(=O)N3CCOCC3)cc2-c2ccc(Cl)cc2)cc1 (stereo unspecified)	–	1.6 µM	–	14%	–	–	–
COc1ccc(-n2nc(C#CC(C)N(O)C(=O)c3ccccc3)cc2-c2ccc(Cl)cc2)cc1 (stereo unspecified)	5%	5.5 µM	–	–	14.9 µM	–	–
COc1ccc(-n2nc(C#CC(C)N(O)C(=O)C(F)(F)F)cc2-c2ccc(C)cc2)cc1 (stereo unspecified)	–	0.19 µM	–	–	0.05 µM	–	–
CCOC(=O)CCC(=O)N(O)C(C)C#Cc1cc(-c2ccc(C)cc2)n(-c2ccc(OC)cc2)n1 (stereo unspecified)	–	10 µM	97%	–	–	–	–
CCc1ccc(-c2cc(C#CC(C)N(O)C(=O)C(C)C)nn2-c2ccc(OC)cc2)cc1 (stereo unspecified)	–	0.18 µM	–	–	–	93%	–
COc1ccc(-n2nc(C#CCN(O)C(N)=O)cc2-c2ccc(Cl)cc2)cc1	9%	–	–	–	–	–	0%
COc1ccc(-n2nc(C#CC(C)N(O)C(=O)c3ccco3)cc2-c2ccc(C)cc2)cc1 (stereo unspecified)	–	–	–	–	–	70%	61%
CCC(C#Cc1cc(-c2ccc(Cl)cc2)n(-c2ccc(OC)cc2)n1)N(O)C(N)=O (stereo unspecified)	–	70.4 µM	91%	0%	–	–	–
COc1ccc(-n2nc(C#CC(C)N(O)C(N)=O)cc2-c2ccc(Cl)cc2)cc1 (stereo unspecified)	–	6.2 µM	–	–	–	–	0%
COC(=O)N(O)C(C)C#Cc1cc(-c2ccc(Cl)cc2)n(-c2ccc(OC)cc2)n1 (stereo unspecified)	–	0.29 µM	–	–	–	77%	84%
CCOC(=O)C(=O)N(O)C(C)C#Cc1cc(-c2ccc(C)cc2)n(-c2ccc(OC)cc2)n1 (stereo unspecified)	66%	3.4 µM	71%	–	–	–	–
CCc1ccc(-c2cc(C#CC(C)N(O)C(=O)CCl)nn2-c2ccc(OC)cc2)cc1 (stereo unspecified)	–	1.7 µM	100%	–	–	–	86%
COc1ccc(-n2nc(C#CCN(O)C(=O)c3ccncc3)cc2-c2ccc(C)cc2)cc1	17%	5.5 µM	89%	–	–	–	–
CCC(=O)N(O)CC#Cc1cc(-c2ccc(C)cc2)n(-c2ccc(OC)cc2)n1	79%	0.06 µM	100%	–	–	–	–
CCCNC(=O)N(O)C(C)C#Cc1cc(-c2ccc(Cl)cc2)n(-c2ccc(OC)cc2)n1 (stereo unspecified)	–	–	82%	14%	–	–	–
CCc1ccc(-c2cc(C#CC(C)N(O)C(=O)OC)nn2-c2ccc(OC)cc2)cc1 (stereo unspecified)	21%	0.75 µM	78%	–	–	–	–
COC(=O)N(O)C(C)C#Cc1cc(-c2ccc(C)cc2)n(-c2ccc(OC)cc2)n1 (stereo unspecified)	–	0.49 µM	–	–	0.14 µM	–	–
CCc1ccc(-c2cc(C#CC(C)N(O)C(C)=O)nn2-c2ccc(OC)cc2)cc1 (stereo unspecified)	–	0.34 µM	–	–	0.06 µM	–	–
COc1ccc(-n2nc(C#CC(C)N(O)C(=O)N3CCCCC3)cc2-c2ccc(Cl)cc2)cc1 (stereo unspecified)	–	–	76%	44%	–	–	–
COc1ccc(-n2nc(C#CC(C)N(O)C(C)=O)cc2-c2ccc(C)cc2)cc1 (stereo unspecified)	–	0.11 µM	–	–	0.01 µM	–	–
COc1ccc(-n2nc(C#CC(C)N(O)C(=O)C(C)C)cc2-c2ccc(C)cc2)cc1 (stereo unspecified)	–	0.09 µM	–	–	0.04 µM	–	–
CCC(C#Cc1cc(-c2ccc(C)cc2)n(-c2ccc(OC)cc2)n1)N(O)C(N)=O (stereo unspecified)	22%	2.1 µM	–	–	15.9 µM	–	–
COc1ccc(-n2nc(C#CC(C(C)C)N(O)C(N)=O)cc2-c2ccc(C)cc2)cc1 (stereo unspecified)	29%	1.2 µM	–	–	4.6 µM	–	–
